From US7078163B2, “Process for reducing mineralization of tissue used in transplantation” (Medtronic, Inc., priority 2001, dated 2006)

Molecular target: T1, Chymotrypsin (Bos taurus, UniProt P00766)
T1 construct: purchased Sigma C 4129; host or cells: bovine pancreas (tissue-derived)
Test: AZOCOLL enzyme activity assay of chymotrypsin after exposure to reducing agent
Type: biochemical, bovine
Settings: chymotrypsin exposed to DTT 10 mM in presence of SDS 1% w:v, 2 hours, 37-40° C., desalted; AZOCOLL 37° C. 20 minutes; mean of 3; positive control 0.523, negative control 0.003
Description: Stock trypsin and chymotrypsin solutions were solubilized from dry powder supplied by the manufacturer in PBS, pH 7.4, at room temperature. Protein concentrations were set at 1 mg/ml. Protein solutions were sterile filtered through a 0.45 μm syringe filter to eliminate potential bacterial contamination.
Working solution of the protein was prepared by dilution from concentrated stock to a final concentration of 100 μg/ml.
The protein was incubated with the agents for 2 hours. […] The protein was passed over a Sephadex G-25 column, as described above, to prepare it for the assay. After the protein was eluted from the column it was used immediately in the assay.
Each of the proteins that were exposed to an agent was assessed for its activity by incubating it with a collagen substrate with an azo containing dye. AZOCOLL was suspended in PBS at a concentration of 1 mg/ml.
For the assay, 1 ml of protein was mixed with 1 ml of AZOCOLL substrate. The reaction was performed at 37° C. for 20 minutes in Ependorff microfuge tubes. […] The aqueous solution was removed from the centrifuge tubes and the absorbance of the solution (containing soluble azo dye) was monitored at 520 nm. […]
All experiments were run in triplicate. Data reported is the mean of the 3 readings. […]

How did the “Abs. @ 520 nm” value turn out when `O[C@@H](CS)[C@@H](O)CS` [reducing agent, dithiothreatol] was run?
The value was 0.031.
